Earlier results on eight compounds are cited in patent US20170165627A1, “MICROENCAPSULATION PROCESS” (ENCAPSYS, LLC, priority 2015, published 2017).

≈ marks a conversion by molar mass, not a printed value.

For series [1] the following is noted: temperature at which the initiator has a 10 hour half-life.
The conditions of series [2]: @ 25° C.

For the compound `CC(C)(N=NC(C)(C)C(=N)N)C(=N)N.Cl` [Example V-50, 2,2′-azobis(2-amidinopropane) hydrochloride], in series [1], the “10 hour ½ life at (temperature)” value is “½ life at 56 °C”.

`C=CC(=O)OCCOCCOCC` [SR256, 2-(2-ethoxyethoxy) ethyl acrylate]: the Solubility in water in series [2] was 25.33 mg/mL (≈ 135 mM).

As for `CC(C)(N=NC(C)(C)C(=O)NCCO)C(=O)NCCO` [VA-086, 2,2′-Azobis[2-methyl-N-(2-hydroxyethyl)propionamide]], the “10 hour ½ life at (temperature)” value in series [1] was 10 hour ½ life at 86 °C.

Take `CCC(C)(C#N)N=NC(C)(C#N)CC` (centres unmarked) [Vazo-67, 2,2′-azobis(2-methylbutyronitrile)]: the “10 hour ½ life at (temperature)” value in series [1] is 67 °C.

As for `N#CC1(N=NC2(C#N)CCCCC2)CCCCC1` [Vazo-88, 1,1′-Azobis(cyclohexanecarbonitrile)], in series [1], the “10 hour ½ life at (temperature)” value was 88 °C.

Turning to “Polyethylene glycol 200 diacrylate [SR259]”, the Solubility in water in series [2] is 40.68 mg/mL.

On to “Polyethylene glycol 400 diacrylate [SR344]”, for which the Solubility in water entry in series [2] is “Water soluble”.

As for “polyethylene glycol (600) diacrylate [SR610]”, the Solubility in water entry in series [2] is “Water soluble”.
